Test results published in ChEMBL document CHEMBL1149262, “Monoamine transporter binding, locomotor activity, and drug discrimination properties of 3-(4-substituted-phenyl)tropane-2-carboxylic acid methyl ester isomers” (J Med Chem, 2004).
The source made the active and inactive calls. No cut-off for these calls is given here.

Key:
Mus musculus [1] = assay: Locomotor activity in CD1 mouse assessed as stimulation at 1 mg/kg, ip after 1 hr relative to control; assay type: functional; conditions: route intraperitoneal
Mus musculus [2] = assay: Locomotor activity in CD1 mouse assessed as stimulation at 1 mg/kg, ip after 2 hrs relative to control; assay type: functional; conditions: route intraperitoneal
Mus musculus [3] = assay: Locomotor activity in CD1 mouse assessed as stimulation at 1 mg/kg, ip after 3 hrs relative to control; assay type: functional; conditions: route intraperitoneal
Mus musculus [4] = assay: Locomotor activity in CD1 mouse assessed as stimulation at 1 mg/kg, ip after 4 hrs relative to control; assay type: functional; conditions: route intraperitoneal
Rattus norvegicus [5] = assay: Drug discrimination effect in CD Albino rat assessed as percent of rat choosing cocaine lever at 1 mg/kg, ip; assay type: functional; conditions: route intraperitoneal
Rattus norvegicus [6] = assay: Drug discrimination effect in CD Albino rat assessed as percent of rat choosing cocaine lever at 3 mg/kg, ip; assay type: functional; conditions: route intraperitoneal
Rattus norvegicus [7] = assay: Drug discrimination effect in CD Albino rat assessed as percent of rat choosing cocaine lever at 5.6 mg/kg, ip; assay type: functional; conditions: route intraperitoneal
Rattus norvegicus [8] = assay: Drug discrimination effect in CD Albino rat assessed as percent of rat choosing cocaine lever at 10 mg/kg, ip; assay type: functional; conditions: route intraperitoneal
Mus musculus [9] = assay: Activity in CD1 mouse assessed as death at 100 mg/kg, ip after 4 hrs; assay type: functional, organism-based; design: dose 100 mg/kg
Mus musculus [10] = assay: Activity in CD1 mouse assessed as convulsions at 100 mg/kg, ip after 4 hrs; assay type: functional, organism-based; design: dose 100 mg/kg
Mus musculus [11] = assay: Activity in CD1 mouse assessed as hypoactivity at 100 mg/kg, ip after 4 hrs; assay type: functional, organism-based; design: dose 100 mg/kg
Mus musculus [12] = assay: Locomotor activity in CD1 mouse assessed as stimulation at 3 mg/kg, ip after 1 hr relative to control; assay type: functional; conditions: route intraperitoneal
Mus musculus [13] = assay: Locomotor activity in CD1 mouse assessed as stimulation at 3 mg/kg, ip after 2 hrs relative to control; assay type: functional; conditions: route intraperitoneal
Mus musculus [14] = assay: Locomotor activity in CD1 mouse assessed as stimulation at 3 mg/kg, ip after 3 hrs relative to control; assay type: functional; conditions: route intraperitoneal
Mus musculus [15] = assay: Locomotor activity in CD1 mouse assessed as stimulation at 3 mg/kg, ip after 4 hrs relative to control; assay type: functional; conditions: route intraperitoneal
Mus musculus [16] = assay: Locomotor activity in CD1 mouse assessed as stimulation at 10 mg/kg, ip after 1 hr relative to control; assay type: functional; conditions: route intraperitoneal
Mus musculus [17] = assay: Locomotor activity in CD1 mouse assessed as stimulation at 10 mg/kg, ip after 2 hrs relative to control; assay type: functional; conditions: route intraperitoneal
Mus musculus [18] = assay: Locomotor activity in CD1 mouse assessed as stimulation at 10 mg/kg, ip after 3 hrs relative to control; assay type: functional; conditions: route intraperitoneal
Mus musculus [19] = assay: Locomotor activity in CD1 mouse assessed as stimulation at 10 mg/kg, ip after 4 hrs relative to control; assay type: functional; conditions: route intraperitoneal
Mus musculus [20] = assay: Locomotor activity in CD1 mouse assessed as stimulation at 30 mg/kg, ip after 1 hr relative to control; assay type: functional; conditions: route intraperitoneal
Mus musculus [21] = assay: Locomotor activity in CD1 mouse assessed as stimulation at 30 mg/kg, ip after 2 hrs relative to control; assay type: functional; conditions: route intraperitoneal
Mus musculus [22] = assay: Locomotor activity in CD1 mouse assessed as stimulation at 30 mg/kg, ip after 3 hrs relative to control; assay type: functional; conditions: route intraperitoneal
Mus musculus [23] = assay: Locomotor activity in CD1 mouse assessed as stimulation at 30 mg/kg, ip after 4 hrs relative to control; assay type: functional; conditions: route intraperitoneal
Mus musculus [24] = assay: Activity in CD1 mouse assessed as flattened body posture at 100 mg/kg, ip after 4 hrs; assay type: functional, organism-based; design: dose 100 mg/kg
Mus musculus [25] = assay: Activity in CD1 mouse assessed as hind limb splay at 100 mg/kg, ip after 4 hrs; assay type: functional, organism-based; design: dose 100 mg/kg; conditions: Hindlimb
Mus musculus [26] = assay: Activity in CD1 mouse assessed as ptosis at 100 mg/kg, ip after 4 hrs; assay type: functional, organism-based; design: dose 100 mg/kg
[27] = molecular target: Sodium-dependent dopamine transporter (Homo sapiens, UniProt Q01959); assay: Displacement of [3H]WIN-35428 from DAT
[28] = molecular target: Sodium-dependent noradrenaline transporter (Homo sapiens, UniProt P23975); assay: Displacement of [3H]nisoxetine from NET
Mus musculus [29] = assay: Locomotor activity in CD1 mouse assessed as stimulation at 0.3 mg/kg, ip after 1 hr relative to control; assay type: functional; conditions: route intraperitoneal
Mus musculus [30] = assay: Locomotor activity in CD1 mouse assessed as stimulation at 0.3 mg/kg, ip after 2 hrs relative to control; assay type: functional; conditions: route intraperitoneal
Mus musculus [31] = assay: Locomotor activity in CD1 mouse assessed as stimulation at 0.3 mg/kg, ip after 3 hrs relative to control; assay type: functional; conditions: route intraperitoneal
Mus musculus [32] = assay: Locomotor activity in CD1 mouse assessed as stimulation at 0.3 mg/kg, ip after 4 hrs relative to control; assay type: functional; conditions: route intraperitoneal
Rattus norvegicus [33] = assay: Cocaine discrimination in ip dosed CD Albino rat; assay type: functional
Rattus norvegicus [34] = assay: Drug discrimination effect in CD Albino rat assessed as percent of rat choosing cocaine lever at 0.17 mg/kg, ip; assay type: functional; conditions: route intraperitoneal
Rattus norvegicus [35] = assay: Drug discrimination effect in CD Albino rat assessed as percent of rat choosing cocaine lever at 0.3 mg/kg, ip; assay type: functional; conditions: route intraperitoneal
Rattus norvegicus [36] = assay: Drug discrimination effect in CD Albino rat assessed as percent of rat choosing cocaine lever at 0.56 mg/kg, ip; assay type: functional; conditions: route intraperitoneal
Mus musculus [37] = assay: Activity in CD1 mouse assessed as slight or intermittent stereotypy at 1 mg/kg, ip after 4 hrs; assay type: functional, organism-based; design: dose 1 mg/kg
Mus musculus [38] = assay: Activity in CD1 mouse assessed as slight or intermittent hyperactivity at 1 mg/kg, ip after 4 hrs; assay type: functional, organism-based; design: dose 1 mg/kg
Mus musculus [39] = assay: Activity in CD1 mouse assessed as hyperactivity at 10 mg/kg, ip after 4 hrs; assay type: functional, organism-based; design: dose 10 mg/kg
Mus musculus [40] = assay: Activity in CD1 mouse assessed as stereotypy at 10 mg/kg, ip after 4 hrs; assay type: functional, organism-based; design: dose 10 mg/kg
Mus musculus [41] = assay: Activity in CD1 mouse assessed as stereotypy at 100 mg/kg, ip after 4 hrs; assay type: functional, organism-based; design: dose 100 mg/kg
Mus musculus [42] = assay: Activity in CD1 mouse assessed as straub tail at 100 mg/kg, ip after 4 hrs; assay type: functional, organism-based; design: dose 100 mg/kg
Mus musculus [43] = assay: Locomotor activity in ip dosed CD1 mouse in peak hour; assay type: functional
[44] = molecular target: Sodium-dependent serotonin transporter (Homo sapiens, UniProt P31645)
Sequence of Sodium-dependent serotonin transporter (P31645 whole entry): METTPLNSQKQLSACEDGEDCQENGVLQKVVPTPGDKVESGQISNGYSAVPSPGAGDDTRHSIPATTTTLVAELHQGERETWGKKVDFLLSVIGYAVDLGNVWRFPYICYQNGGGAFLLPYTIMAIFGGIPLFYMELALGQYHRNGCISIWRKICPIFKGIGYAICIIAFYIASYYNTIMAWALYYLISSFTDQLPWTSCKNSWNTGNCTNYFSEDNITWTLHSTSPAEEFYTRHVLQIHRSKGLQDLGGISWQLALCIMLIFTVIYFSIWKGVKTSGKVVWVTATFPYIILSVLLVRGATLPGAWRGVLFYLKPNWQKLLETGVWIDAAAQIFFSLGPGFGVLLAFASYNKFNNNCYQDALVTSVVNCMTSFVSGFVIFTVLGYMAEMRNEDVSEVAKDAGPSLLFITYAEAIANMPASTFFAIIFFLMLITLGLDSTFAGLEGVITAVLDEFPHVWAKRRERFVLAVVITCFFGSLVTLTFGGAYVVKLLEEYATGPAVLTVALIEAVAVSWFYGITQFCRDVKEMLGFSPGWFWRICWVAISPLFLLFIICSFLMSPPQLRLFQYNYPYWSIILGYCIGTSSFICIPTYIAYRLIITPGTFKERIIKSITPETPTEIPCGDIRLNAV
Description: Displacement of [3H]paroxetine from 5HTT

Sequence of Sodium-dependent noradrenaline transporter (P23975 whole entry): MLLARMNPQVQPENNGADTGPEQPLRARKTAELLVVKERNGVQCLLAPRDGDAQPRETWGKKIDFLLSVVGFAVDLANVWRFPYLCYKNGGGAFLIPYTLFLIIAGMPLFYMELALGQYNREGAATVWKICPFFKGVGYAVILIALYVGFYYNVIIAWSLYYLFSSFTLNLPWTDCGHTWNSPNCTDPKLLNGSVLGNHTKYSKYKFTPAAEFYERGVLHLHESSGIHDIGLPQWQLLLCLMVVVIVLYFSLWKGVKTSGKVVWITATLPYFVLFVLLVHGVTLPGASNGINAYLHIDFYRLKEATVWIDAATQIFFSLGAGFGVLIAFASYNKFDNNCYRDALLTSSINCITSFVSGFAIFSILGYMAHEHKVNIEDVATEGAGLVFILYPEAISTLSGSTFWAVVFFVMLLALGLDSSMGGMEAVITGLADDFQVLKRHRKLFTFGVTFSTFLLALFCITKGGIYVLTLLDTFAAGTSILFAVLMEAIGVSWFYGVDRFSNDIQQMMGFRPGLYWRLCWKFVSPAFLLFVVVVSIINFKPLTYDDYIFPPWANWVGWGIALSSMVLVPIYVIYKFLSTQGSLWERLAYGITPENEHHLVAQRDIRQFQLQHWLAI
Sequence of Sodium-dependent dopamine transporter (Q01959 whole entry): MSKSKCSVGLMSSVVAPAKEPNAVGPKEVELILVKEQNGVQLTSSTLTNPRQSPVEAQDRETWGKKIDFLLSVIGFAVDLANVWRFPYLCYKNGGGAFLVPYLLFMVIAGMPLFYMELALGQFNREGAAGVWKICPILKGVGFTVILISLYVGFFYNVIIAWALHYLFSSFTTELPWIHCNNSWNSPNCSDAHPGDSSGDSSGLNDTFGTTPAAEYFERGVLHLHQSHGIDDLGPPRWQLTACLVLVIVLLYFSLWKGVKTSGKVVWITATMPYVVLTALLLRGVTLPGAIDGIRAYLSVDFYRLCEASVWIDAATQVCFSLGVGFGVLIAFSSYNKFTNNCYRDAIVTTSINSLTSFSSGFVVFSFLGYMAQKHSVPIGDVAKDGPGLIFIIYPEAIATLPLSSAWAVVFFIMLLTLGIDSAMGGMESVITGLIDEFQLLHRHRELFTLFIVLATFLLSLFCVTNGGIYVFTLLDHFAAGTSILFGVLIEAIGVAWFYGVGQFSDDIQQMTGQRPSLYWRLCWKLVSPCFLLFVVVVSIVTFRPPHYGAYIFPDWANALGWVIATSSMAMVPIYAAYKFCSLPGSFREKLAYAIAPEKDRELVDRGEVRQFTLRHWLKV

SMILES | Activity (Mus musculus [1]) | Activity (Mus musculus [2]) | Activity (Mus musculus [3]) | Activity (Mus musculus [4]) | Activity (Rattus norvegicus [5]) | Activity (Rattus norvegicus [6]) | Activity (Rattus norvegicus [7]) | Activity (Rattus norvegicus [8]) | Activity (Mus musculus [9]) | Activity (Mus musculus [10]) | Activity (Mus musculus [12]) | Activity (Mus musculus [13]) | Activity (Mus musculus [14]) | Activity (Mus musculus [15]) | Activity (Mus musculus [16]) | Activity (Mus musculus [17]) | Activity (Mus musculus [18]) | Activity (Mus musculus [19]) | Activity (Mus musculus [20]) | Activity (Mus musculus [21]) | further results
COC(=O)[C@H]1[C@H]2CCC(C[C@H]1c1ccc(Cl)cc1)N2C | 6% | 182% | 154% | 45% | 13% | 0% | 13% | 13% | Active | Active | 16% | 128% | 107% | 69% | 51% | 169% | 114% | 41% | -46% | -27% | Activity (Mus musculus [11]): Active; Activity (Mus musculus [22]): 125%; Activity (Mus musculus [23]): -27%; Activity (Mus musculus [24]): Active
COC(=O)[C@H]1[C@H]2CCC(C[C@H]1c1ccc(C)cc1)N2C | -15% | 110% | 118% | -51% | 13% | 0% | 13% | 0% | Active | Active | 6% | 132% | 47% | 56% | 8% | 96% | 120% | -36% | -57% | -36% | Activity (Mus musculus [25]): Active; Activity (Mus musculus [26]): Active; IC50 [27]: 23.4 nM; IC50 [28]: 3850 nM; Ki [28]: 1930 nM; Activity (Mus musculus [22]): 78%; Activity (Mus musculus [23]): -35%; Activity (Mus musculus [24]): Active
COC(=O)[C@H]1[C@@H](c2ccc(F)cc2)C[C@H]2CC[C@H]1N2C | 333% | 232% | 28% | -29% | 100% | – | – | – | – | Active | 633% | 558% | 199% | 140% | 330% | 220% | 594% | 739% | – | – | Activity (Mus musculus [29]): 5%; Activity (Mus musculus [30]): -33%; Activity (Mus musculus [31]): -66%; Activity (Mus musculus [32]): -47%; ED50 (Rattus norvegicus [33]): 0.29 mg/kg; Activity (Rattus norvegicus [34]): 0%; Activity (Rattus norvegicus [35]): 57%; Activity (Rattus norvegicus [36]): 86%; Activity (Mus musculus [37]): Active; Activity (Mus musculus [38]): Active; Activity (Mus musculus [39]): Active; Activity (Mus musculus [40]): Active; Activity (Mus musculus [41]): Active; Activity (Mus musculus [42]): Active; Ki [28]: 503 nM; ED50 (Mus musculus [43]): 0.7 mg/kg; IC50 [44]: 692 nM; Ki [44]: 63 nM
